# According to patent US6964958B2, “Method of simultaneously treating sensory auditory gating deficit and associated psychosis in schizophrenia and bipolar disorder patients with mania” (priority 2001, dated 2005):
# Experiments:
# wild-type mice (WTM) = assay: Prepulse inhibition of startle (PPI) in wild-type mice; type: in vivo, mouse; conditions: subcutaneous, 115 db startle, 75 or 80 db prepulse
# Text: (§1) The startle apparatus (SR-Lab, San Diego Instruments) consisted of a Plexiglas cylinder resting on a Plexiglas frame within a ventilated soundproof enclosure. Acoustic noise bursts were presented by. speaker 24 cm above the animal. and a piezo-electric device transduced any consequent motion (flinch) within the cylinder. Two stimulus trial types 1) 115 db startle stimulus only; or 2) 115 db stimulus preceded by a 75 or 80 db prepulse 100 msec before startle simulut onset were randomly presented with a mean intertrial interval of 20 sec. Stimuli were 30 msec in duration and were presented over a constant 65 db white noise background also present during a 5-min adaptation period.
# (§2) Mean peak amplitude of the flinch response within a 200 msec window following presentation of the 115 db stimulus was calculated separately for each type of startle trial. Ratios reflecting the amount of inhibition due to the prepulse were calculated by dividing the difference between mean amplitude for startle and prepulse trials by the mean for the startle trials. PPI data are commonly presented in this ratio form to control for overall level of the startle reflex itself.
# Imidazenil or alprazolam was dissolved in DMSO, combined with oil, and injected subcutaneously at a volume of 0.1 ml/10 gm of body weight. The amount of DMSO was approximately 1% of total volume. […]
# [1] = FIG. 1 dose-response comparison; cited from earlier work
# [2] = test system: heterozygous reeler mice (HRM); assay: Prepulse inhibition of startle (PPI) in heterozygous reeler mice; type: in vivo, mouse; conditions: for auditory PPI deficit in HRM: heterozygous reeler mice, subcutaneous, imidazenil 0.3, 0.6 mg/kg, 115 db startle, 75 or 80 db prepulse
# Text: as §1, §2
# Imidazenil or alprazolam was dissolved in DMSO, combined with oil, and injected subcutaneously at a volume of 0.1 ml/10 gm of body weight. The amount of DMSO was approximately 1% of total volume. Vehicle was prepared similarly and vehicle or drug was administered in counterbalanced order using a within-subject design. Following drug administration, the mouse was placed in an isolated cage for 10-15 min before being placed in the startle apparatus. Animals were tested between 11:00 hr and 15:00 hr.
# [3] = in nonhuman primates; cited from earlier work
# rats = conditions: doses up to 60-fold greater than doses producing anxiolytic and anticonvulsant actions; cited from earlier work
# GABAA receptors = conditions: cited from earlier work
# patas monkeys = conditions: cited from earlier work
# [4] = test system: benzodiazepines binding sites; conditions: cited from earlier work
SMILES,PPI of WTM (wild-type mice (WTM)),"sedation, amnesia, tolerance and dependence liability relative to doses with anxiolytic and anticonvulsant (therapeutic) actions [1]",auditory PPI deficit in HRM [2],T 1/2 (clearance rate) [3] [h],antagonism of sedative and amnestic actions of alprazolam (rats),action on GABAA alpha1 subunit (GABAA receptors; GABAA receptors containing alpha1 subunit),efficacy at GABAA receptor subtypes (GABAA receptors; at least eight subtypes of GABAA receptors tested),intensity of GABA-gated Cl- currents (GABAA receptors),"antagonism of sedative and amnestic actions of alprazolam (patas monkeys; monkeys, doses up to 60-fold greater than doses producing anxiolytic and anticonvulsant actions)","tolerance to the effects during treatment (patas monkeys; patas monkeys, seventeen day treatment)","overall startle level (sedative effect) ([2]; doses of imidazenil (0.3, 0.6 mg/kg) that correct the PPI deficit in HRM)",affinity for benzodiazepines binding sites [4]
"Cc1nnc2n1-c1ccc(Cl)cc1C(c1ccccc1)=NC2 [alprazolam, 8chloro-1-methyl-6-phenyl-4-[1,2,4]triazolo[4,3a][1-4]benzodiazepine, reference compound]",decreased PPI in WTM,appear with doses that are very close to those that cause anxiolytic and anticonvulsant actions,failed to revert the PPI deficit in HRM,–,–,–,–,–,–,–,–,–
"NC(=O)c1ncn2c1CN=C(c1ccccc1Br)c1cc(F)ccc1-2 [imidazenil, 6-(2 bromophenyl)-8-fluoro-4H-imidazo[1,5a][1,4]benzodiazepine-3-carboxamide]",no primary effects on the PPI of WTM,virtually undetectable,corrected the auditory PPI deficit in HRM,> 6,antagonizes the sedative and amnestic actions of alprazolam,does not act on GABAA α1 subunit,partial agonist,never maximizes the intensity of GABA-gated Cl^− currents,antagonizes the sedative and amnestic actions of alprazolam,no tolerance,fail to change the overall startle level,high affinity
